According to patent US9271994B2, “Compositions and methods related to calcitriol” (VDF Futureceuticals, Inc., priority 2009, dated 2016):

Tests used:
Format in all cases: in vivo
blood calcitriol = test: Blood/serum calcitriol after single oral dose in human volunteers (radioimmuno assay)
Procedure: (§1) In a typical example, five subjects were administered a single dosage of 552 mg calcium fructoborate upon informed consent, and blood was drawn immediately prior to administration and after 30, 60, 90, and 120 minutes. Calcitriol was measured using a standard radioimmuno assay from a commercial lab starting from 4 ml whole blood (numerous alternative methods are also deemed suitable, including those described in U.S. Pat. Nos. 4,585,741, 5,202,266, and 6,455,714). From each sample and for each time point, concentrations of calcidiol and calcitriol in serum were measured and the data are shown in FIGS. 1A to 1D. FIG. 1A depicts the effect of oral administration of calcium fructoborate on blood calcitriol 30 minutes after oral administration, FIG. 1B depicts the effect of oral administration of calcium fructoborate on blood calcitriol 60 minutes after oral administration, and FIG. 1C depicts the effect of oral administration of calcium fructoborate on blood calcitriol 90 minutes after oral administration. FIG. 1D depicts the effect of oral administration of calcium fructoborate on blood calcitriol 90-120 minutes after oral administration.
FIGS. 2A and 2B depict a graphic illustration of the results from this study where the biphasic mode of modulation of calcitriol is clearly seen between times 0-90 minutes (decrease) and 90-120 minutes (increase). In most cases, it is expected that the so increased calcitriol level will drop back to starting levels within 6 hours or less, and more typically within 4 hours, or less (data not shown). FIG. 3 depicts another graphic representation in which the exclusive modulation of calcitriol versus calcidiol is shown.
While not wishing to be bound by any theory or hypothesis, the inventors contemplate that the compounds according to the inventive subject matter increase serum concentration of calcitriol in a bi-modal manner. During the first 60 minutes, a moderate increase is observed in the case of subjects with low initial level of calcitriol (<30 pg/ml), but not in subjects with initial level >30 pg/ml. […]

[1] = test system: serum calcium, serum phosphate, parathyroid hormone, calcitonin; test: Serum calcium, phosphate, parathyroid hormone and calcitonin upon administration; settings: about 550 mg; data not shown
[2] = Intact Ca-Fructoborate in serum of orally treated fasted mice by LC-MS; settings: oral gavage 600 mcg/mouse; for Intact Ca-fructoborate in serum: fasted mice
Procedure: Using LC-MS, Ca-Fructoborate was detected and measured from serum samples at concentrations as low as 0.2 ppm and higher. This method was used to analyze the presence and amount of Ca-Fructoborate in serum collected from mice treated orally (gavage) with Ca-Fructoborate in liquid at dose 600 mcg/mouse for 30 and 60 minutes.
Detection of intact Ca-Fructoborate in sera collected from fasted mice treated orally with the compound for 30 or 60 minutes. Collected sera were diluted in running buffer and filtered through 0.45 PVDF filter. This solution was analyzed by LCMS for Ca-Fructoborate as the fructoborate anion.

calcidiol = test: Serum calcidiol after single oral dose in human volunteers; settings: single oral dosage of 552 mg, five subjects, 30-120 minutes after administration
Procedure: as §1

- Intact Ca-fructoborate in serum ([2]; 30 minutes): 449 µg/mL
- Intact Ca-fructoborate in serum ([2]; 60 minutes): 556 µg/mL
- bioavailability of the compound ([2]; mice (20 g by average)): 556 mcg/ml of serum
Substance: calcium fructoborate
- modulation of calcitriol between times 0-90 minutes (blood calcitriol; single oral 552 mg, 0-90 minutes): decrease
- modulation of calcitriol between times 90-120 minutes (blood calcitriol; single oral 552 mg, 90-120 minutes): increase
- calcitriol serum concentration (blood calcitriol; single oral dosage of 552 mg, five subjects, 30-120 minutes after administration): significantly and acutely affected
- change of serum calcium concentration [1]: 5-15%
- change of serum concentration of calcitonin [1]: 10-30%
- change of serum concentration of parathyroid hormone [1]: 10-30%
- change of serum phosphate concentration [1]: 5-15%
- delivery from intestine to bloodstream ([2]; mice, 30 and 60 minutes): in intact form and in time-dependent manner
- calcidiol concentration (calcidiol): remained unaffected
